Reference: patent publication US20240245647A1, “ISOMEROHYDROLASE INHIBITOR FOR TREATMENT OF ATROPHIC FORM OF AGE-RELATED MACULAR DEGENERATION AND STARGARDT DISEASE” (The Trustees of Columbia University in the City of New York, priority 2021, published 2024)

Tests used:
[1] = test system: cGAS/STING signal pathway; assay: cGAS/STING pathway activation after LIRD (Western blot); format: in vivo, BALB/c mice; conditions: 2 mg/kg
Protocol: FIG. 8. Elevated protein levels of cGAS-STING pathway in BALB/c mice. The CGAS, STING and phosphorylated NF-κB (pp65). (FIGS. 8A-8C) Retinas were harvested and cGAS and STING protein levels were measured by Western blot analysis with β-actin as loading control and densitometry quantification. (FIGS. 8D-8E) Levels of phosphorylated NF-κB (p-NF-κB) were determined by Western blotting. Total NF-κB (p65) was used as an internal control and densitometry quantification. Each lane represents an individual mouse. (FIGS. 8F-8G) Photoreceptor cell apoptosis was evaluated by TUNEL on the retinal sections at the dose of 2 mg/kg in BALB/c mice and correlating quantitative analysis. Student's t-test was used (n=5, mean±SEM, *P<0.05, **<0.01).
To further evaluate the effect of RPE65-61 on retinal apoptosis, retinal sections from LIRD mice were used for Terminal deoxynucleotidyltransferase dUTP nick-end labeling (TUNEL) with the In Situ Cell Death Detection Kit (Millipore/sigma Cat #:11684795910). TUNEL-positive photoreceptor cells were quantified to evaluate the effects of RPE65-61 as described (Rajala, A. et al. 2018; Ma, H. et al. 2020).

[2] = target: T1, VAP-1 (Homo sapiens, UniProt Q16853); assay: in vitro; conditions: both, plasma, pH 7.4
T1 sequence (Q16853 29-763 limits assumed): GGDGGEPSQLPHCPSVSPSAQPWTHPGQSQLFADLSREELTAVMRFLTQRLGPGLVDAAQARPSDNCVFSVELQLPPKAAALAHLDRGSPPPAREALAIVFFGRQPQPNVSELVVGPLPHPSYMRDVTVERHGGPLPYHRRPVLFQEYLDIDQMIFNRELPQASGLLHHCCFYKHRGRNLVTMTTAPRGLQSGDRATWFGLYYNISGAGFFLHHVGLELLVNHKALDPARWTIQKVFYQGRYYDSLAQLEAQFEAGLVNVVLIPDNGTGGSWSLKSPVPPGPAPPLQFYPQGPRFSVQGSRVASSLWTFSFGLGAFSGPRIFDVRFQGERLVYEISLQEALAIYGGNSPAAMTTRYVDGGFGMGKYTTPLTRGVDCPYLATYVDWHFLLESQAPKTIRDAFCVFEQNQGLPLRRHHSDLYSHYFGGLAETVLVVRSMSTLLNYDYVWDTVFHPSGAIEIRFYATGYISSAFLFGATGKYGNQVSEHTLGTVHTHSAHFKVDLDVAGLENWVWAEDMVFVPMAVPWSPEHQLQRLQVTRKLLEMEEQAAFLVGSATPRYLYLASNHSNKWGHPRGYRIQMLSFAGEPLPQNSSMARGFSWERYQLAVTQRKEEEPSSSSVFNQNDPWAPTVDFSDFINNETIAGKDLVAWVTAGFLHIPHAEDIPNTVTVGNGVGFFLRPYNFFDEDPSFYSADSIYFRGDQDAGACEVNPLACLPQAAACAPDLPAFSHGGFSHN
Protocol: (§1) Studies were carried out in mixed-gender human plasma (Lot #HMN330460) and male Beagle dog plasma (Lot #BGL118112), obtained from BioIVT and collected on sodium heparin. Plasma was adjusted to pH 7.4 prior to initiating the experiments. DMSO stocks were first prepared for the test articles. Aliquots of the DMSO solutions were dosed into 1 mL of plasma, which had been pre-warmed to 37° C., at a final test article concentration of 1 μM. The vials were kept in a benchtop Thermomixer® for the duration of the experiment. Aliquots (100 μL) were taken at each time point (0, 15, 30, 60, and 120 minutes) and added to 96-well plates, which had been pre-filled with 300 μL of acetonitrile (ACN). Samples were stored at 4° C. until the end of the experiment. After the final time point was sampled, the plate was mixed and then centrifuged at 3,000 rpm for 10 minutes. Aliquots of the supernatant were removed, diluted 1:1 into distilled water, and analyzed by LC-MS/MS. The peak area response ratio to internal standard (PARR) was compared to the PARR at time 0 to determine the percent of test article remaining at each time point. Half-lives were calculated using GraphPad software, fitting to a single-phase exponential decay equation.

[3] = test system: VAP-1; assay: in vitro; conditions: male, Beagle, dog, plasma, pH 7.4
Protocol: as §1

How did the “activation of cGAS/STING signal pathway in RPE and photoreceptor cells” value [1] turn out when `N=S(=O)(CCN)c1cccc(OCC2CCCCC2)c1` (racemic) [RPE65-61, (±)-(2-aminoethyl) (3-(cyclohexylmethoxy)phenyl) (imino)-λ^6-sulfanone] was run?
The value was “protected RPE and photoreceptor cells from the activation of cGAS/STING signal pathway”.

What about the half-life at 1 μM [2] of the same molecule?
Its half-life at 1 μM is over 120 min.

And the half-life at 1 μM [3]?
The half-life at 1 μM was 35.3 min.
